Assays:
neutrophil recruitment = test: Zymosan peritonitis, neutrophil recruitment into the peritoneum; set-up: species or system mouse; settings: administered in vivo (as mixtures, FIG. 5); result in words
Description: FIG. 5. n-3 DPA immunoresolvents display potent anti-inflammatory actions in vivo. The indicated n-3 DPA-derived product mixtures were administered by intravenous injection 10 min prior to the intraperitoneal administration of zymosan (0.1 mg, 500 μl PBS) to 6-8-week-old male FvB mice. At 4 h, peritoneal exudates were collected and the (a) number of infiltrated neutrophils was assessed by light microscopy and flow cytometry. Exudate levels for the pro-inflammatory mediators (b) IL6 and (c) MCP-1 were determined by cytokine array. The ratio of RvD1n-3 DPA to RvD2n-3 DPA was ˜3:1 (A), the ratio of MaR1n-3 DPA to MaR2n-3 DPA was ˜4:1 (B); the ratio of RvD5n-3 DPA to PD1n-3 DPA was ˜9:1 (C). Results are mean±SEM. n=4 mice per group (*P<0.05; vs. vehicle group). Results are mean±SEM. n=4. *P<0.05, **P<0.01 vs. zymosan mice.
It was then determined whether these novel structures carried bioactivity.
Zymosan (0.1 mg) was injected intraperitoneally (i.p.) in 1 ml of sterile saline. Exudates were collected at 0, 4, 12 and 24 h post zymosan. Leukocyte numbers and differential counts in the peritoneal exudates were determined as in^16. In designated experiments, mice were administered intravenously (i.v): Vehicle (saline containing 0.1% EtOH), or the indicated mixture of n-3 DPA-derived products at 100 ng/mouse 5 min prior to i.p. zymosan administration (0.1 mg). After 4 h the exudates were collected and the number of extravasated neutrophils determined using Turks solution and flow cytometry as above.

[1] = system: infiltrated leukocytes into the lungs / lung tissue damage; test: Murine hind limb ischemia reperfusion, second organ (lung) injury: histology and lung MPO; format: in vivo, mouse; settings: i.v. 10 min prior to reperfusion; RvD1 500 ng (FIG. 1) or 0.5 ng (Methods); result in words
Description: (a) Structures of DHA and n-3 DPA. (b) Ischemia was induced by applying tourniquets to the hind limb of 6-8-week-old male FvB mice. After 1 h, tourniquets were removed and reperfusion ensued for 3 h. 10 min prior to reperfusion, vehicle (saline containing 0.1% EtOH), RvD1 (500 ng) or a mixture of n-3 DPA-derived products (see Methods for details) were administered intravenously. At the end of reperfusion, lungs were collected; (c) tissue histology by H&E staining (×200) and (d) MPO levels were assessed. (e) Blood was collected, incubated with rat anti-mouse Ly6G and rat anti-mouse CD41 antibodies and neutrophil leukocyte aggregates were assessed by flow cytometry. (f) Plasma prostanoid and (g) leukotriene levels were assessed by lipid mediator metabololipidomics. Results are mean±SEM. n=4 mice per group. (*P<0.05; vs. vehicle group). Results c are representative n=4. Results d-e are mean±SEM. n=4. *P<0.05, **P<0.01 vs. vehicle mice. […]
Mice were anesthetized by intraperitoneal injection of a mixture of […]. […] The frozen lungs were homogenized from individual mice, centrifuged and the tissue myeloperoxidase (MPO) levels were determined using a mouse MPO ELISA (R&D Systems.).

[2] = system: human monocyte-derived macrophages; test: Macrophage phagocytosis of fluorescently labeled zymosan; format: cell-based; settings: 1 nM, 15 min, 37° C.; then labeled zymosan 60 min
Description: (§1) FIG. 7. Reduction in human neutrophil chemotaxis, neutrophil-endothelia cell adhesion and stimulation of macrophage phagocytosis by n-3 DPA-derived immunoresolvents. (a) Left panel: micrographs depict PKH26-labeled neutrophils adherent to WGA-Alexafluor® 488-labeled HUVEC stimulated with TNF-α (10 ng/ml, 4 h, 37° C., 0.1% FCS) with or without n-3 DPA resolvins (1 nM, 15 min, 37° C., pH7.45; ×40 magnification). Right panel: Fluorescently labeled human neutrophils were incubated with vehicle (0.1% EtOH in PBS) or n-3 DPA products. These were then added to TNF-α-stimulated HUVEC and incubated for 30 min (37° C.), non-adherent cells were washed and extent of neutrophil adhesion assessed using a SpectraMax M3 Plate reader. (b) Neutrophils were incubated with vehicle (0.1% EtOH in PBS) or n-3 DPA products (1 nM, 15 min, 37° C., pH7.45) prior to loading on ChemoTx chambers and assessing chemotaxis towards IL-8 (100 ng/ml, 90 min, 37° C., pH7.45). […] After 60 min (37° C., pH7.45), the incubation was stopped, extracellular fluorescence quenched using trypan blue and phagocytosis assessed using a SpectraMax M3 Plate reader. […]
Macrophages were prepared and phagocytosis was assessed as in^16. […] Phagocytosis was assessed using an M3 SpectraMax plate reader.

human neutrophils = test: Neutrophil chemotaxis towards IL-8 (ChemoTx); format: cell-based; settings: 1 nM, 15 min, 37° C.; IL-8 100 ng/ml, 90 min
Description: as §1, with “reader.” for “reader. (b) Neutrophils were incubated with vehicle (0.1% EtOH in PBS) or n-3 DPA products (1 nM, 15 min, 37° C., pH7.45) prior to loading on ChemoTx chambers and assessing chemotaxis towards IL-8 (100 ng/ml, 90 min, 37° C., pH7.45).”
Peripheral blood neutrophils were obtained from healthy volunteers as in^17. […] 2.5×10^4 cells were then added to the upper chamber of the ChemoTx System (3 μm pore size filter) and chemotaxis towards IL8 (100 ng/ml) was assessed (90 min, 37° C., 5% CO2). The number of cells migrated into the bottom chamber was determined using Alama Blue following manufacturer's instructions on a Spectra Max M3 microplate reader (Molecular Devices Inc., Sunnyvale, Calif.).

[3] = system: human neutrophils adhering to TNF-α activated endothelial cells (HUVEC); test: Human neutrophil-endothelial cell adhesion; format: cell-based; settings: 1 nM, 15 min, 37° C.; HUVEC stimulated with TNF-α 10 ng/ml, 4 h; vs vehicle
Description: as §1
HUVEC were purchased from Lonza and cultured to passage 4. […] The plates were then washed with DPBS to remove non-adherent cells and the number of adherent neutrophils assessed using a Spectra Max M3 microplate reader.

Structure (SMILES) | neutrophil infiltration in murine peritonitis (neutrophil recruitment) | other results
CC/C=C\C/C=C\CC(O)C=CC=CC=CC(O)CCCCCC(=O)O (stereo not shown) [MaR1n-3 DPA, 7,14-dihydroxy-8,10,12,16Z,19Z-docosapentaenoic acid] | reduced neutrophil infiltration | 
CC/C=C\C/C=C\CC(O)C(O)C=CC=C/C=C\CCCCCC(=O)O (stereo not shown) [MaR2n-3 DPA, 13,14-dihydroxy-7Z,9,11,16Z,19Z-docosapentaenoic acid] | reduced neutrophil infiltration | 
CC/C=C\CC(O)C=CC=CC=CC(O)C/C=C\CCCCCC(=O)O (stereo not shown) [PD1n-3 DPA, 10,17-dihydroxy-7Z,11,13,15,19Z-docosapentaenoic acid] | reduced neutrophil infiltration | 
CC/C=C\C[C@H](O)/C=C/C=C\C=C\C=C\[C@@H](O)[C@@H](O)C/C=C\CCC(=O)O [RvD1, 7S,8R,17S-trihydroxy-4Z,9E,11E,13Z,15E,19Z-docosahexaenoic acid] |  | protection from secondary organ injury (lung tissue damage, infiltrated leukocytes) [1]: protection
CC/C=C\CC(O)/C=C/C=CC=CC=CC(O)C(O)CCCCCC(=O)O (stereo not shown) [RvD1n-3 DPA, 7,8,17-trihydroxy-9,11,13,15E,19Z-docosapentaenoic acid] | reduced neutrophil infiltration | 
CC/C=C\C[C@H](O)[C@H](O)/C=C/C=C/C=C\C=C\[C@@H](O)C/C=C\CCC(=O)O [RvD2, 7S,16R,17S-trihydroxy-4Z,8E,10Z,12E,14E,19Z-docosahexaenoic acid] |  | increase in macrophage phagocytosis (uptake) of zymosan [2]: ~50%; reduction in neutrophil chemotaxis towards an IL-8 gradient (human neutrophils): ~42%; reduction in neutrophil adhesion to TNF-α activated endothelial cells [3]: ~30%
CC/C=C\CC(O)C(O)/C=C/C=CC=CC=CC(O)CCCCCC(=O)O (stereo not shown) [RvD2n-3 DPA, 7,16,17-trihydroxy-8,10,12,14E, 19Z-docosapentaenoic acid] | reduced neutrophil infiltration | 
CC/C=C\C[C@H](O)/C=C/C=C\C/C=C\C=C\[C@@H](O)CCCCCC(=O)O [RvD5n-3 DPA, 7,17-trihydroxy-8E,10,13,15E,19Z-docosapentaenoic acid] | reduced neutrophil infiltration | 

From patent publication US9902681B2, “N-3 immunoresolvents: structures and actions” (THE BRIGHAM AND WOMEN'S HOSPITAL, INC., priority 2013, dated 2018)
